{"source": "patent US20100267561A1", "about": "“HERBICIDAL PYRIDAZINONE DERIVATIVES” (priority 2007, published 2010)", "type_in_all_cases": "in vivo", "key": {"[1]": {"system": "large crabgrass (Digitaria sanguinalis)", "assay": "Test B pre-/postemergence plant response", "conditions": "for Crabgrass, Large plant response rating: 8 g ai/ha", "summary_of_the_method": "(§1)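 Visual scoring from 0 (no effect) to 100 (complete control) against untreated controls was done 13 to 15 days after greenhouse treatment. Chemicals were formulated in a surfactant-containing non-phytotoxic solvent and applied to soil preemergence or to 1- to 4-leaf (2-18 cm) plants postemergence.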"}, "[2]": {"system": "woolly cupgrass (Eriochloa villosa)", "assay": "Test B pre-/postemergence plant response", "conditions": "for Cupgrass, Woolly plant response rating: 8 g ai/ha", "summary_of_the_method": "as §1"}, "[3]": {"system": "Italian ryegrass (Lolium multiflorum)", "assay": "Test C pre-/postemergence plant response", "conditions": "Preemergence", "summary_of_the_method": "(§2)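 Pre- and postemergence treatment, visual 0–100 rating vs controls at 15–25 days.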"}, "[4]": {"system": "annual bluegrass (Poa annua)", "assay": "Test C pre-/postemergence plant response", "conditions": "Preemergence", "summary_of_the_method": "as §2"}, "[5]": {"system": "blackgrass (Alopecurus myosuroides)", "assay": "Test C pre-/postemergence plant response", "conditions": "Preemergence", "summary_of_the_method": "as §2"}, "[6]": {"system": "canarygrass (Phalaris minor)", "assay": "Test C pre-/postemergence plant response", "conditions": "Preemergence", "summary_of_the_method": "as §2"}, "[7]": {"system": "downy bromegrass (Bromus tectorum)", "assay": "Test C pre-/postemergence plant response", "conditions": "Preemergence", "summary_of_the_method": "as §2"}, "[8]": {"system": "green foxtail (Setaria viridis)", "assay": "Test C pre-/postemergence plant response", "conditions": "Preemergence", "summary_of_the_method": "as §2"}, "[9]": {"system": "pigweed (Amaranthus retroflexus)", "assay": "Test C pre-/postemergence plant response", "conditions": "Preemergence", "summary_of_the_method": "as §2"}, "[10]": {"system": "spring barley (Hordeum vulgare)", "assay": "Test C pre-/postemergence plant response", "conditions": "Preemergence", "summary_of_the_method": "as §2"}, "[11]": {"system": "wild mustard (Sinapis arvensis)", "assay": "Test C pre-/postemergence plant response", "conditions": "Preemergence", "summary_of_the_method": "as §2"}, "wild oat (Avena fatua)": {"system": "wild oat (Avena fatua)", "assay": "Test C pre-/postemergence plant response", "conditions": "Preemergence", "summary_of_the_method": "as §2"}, "[12]": {"system": "winter wheat (Triticum aestivum)", "assay": "Test C pre-/postemergence plant response", "conditions": "Preemergence", "summary_of_the_method": "as §2"}, "[13]": {"conditions": "Postemergence, 16 g ai/ha, scale 0 to 100"}, "[14]": {"conditions": "Postemergence, 31 g ai/ha, scale 0 to 100, 0 no effect, 100 complete control"}, "[15]": {"conditions": "Postemergence, 62 g ai/ha, scale 0 to 100, 0 no effect, 100 complete control"}, "[16]": {"conditions": "Preemergence, 16 g ai/ha, scale 0 to 100 (0 no effect, 100 complete control)"}, "[17]": {"conditions": "Preemergence, 31 g ai/ha, 0 to 100 scale, 0 no effect, 100 complete control"}, "[18]": {"conditions": "Preemergence, 62 g ai/ha, scale 0 to 100"}, "[19]": {"conditions": "8 g ai/ha, scale 0 to 100 (0 no effect, 100 complete control)"}, "[20]": {"conditions": "16 g ai/ha, scale 0 to 100 (0 no effect, 100 complete control)"}, "[21]": {"conditions": "31 g ai/ha, scale 0 to 100 (0 no effect, 100 complete control)"}, "[22]": {"conditions": "62 g ai/ha, scale 0 to 100, 0 no effect, 100 complete control"}}}
{"smiles": "Cc1cc(-c2ccc(Cl)cc2)nn1-c1c(OC(=O)C(C)C)cnn(C)c1=O", "note": "[Compound 34]", "values": [{"measurement": "Crabgrass, Large plant response rating", "setting": "[1]; postemergence, 0-100 scale", "value": 70}, {"measurement": "Plant response rating, Crabgrass, Large", "setting": "[1]; [13]", "value": 80}, {"measurement": "Plant response rating, Crabgrass, Large", "setting": "[1]; [14]", "value": 95}, {"measurement": "Plant response rating, Crabgrass, Large", "setting": "[1]; [15]", "value": 100}, {"measurement": "Plant response rating, Crabgrass, Large", "setting": "[1]; [16]", "value": 100}, {"measurement": "Plant response rating, Crabgrass, Large", "setting": "[1]; [17]", "value": 100}, {"measurement": "Plant response rating, Crabgrass, Large", "setting": "[1]; [18]", "value": 100}, {"measurement": "Crabgrass, Large plant response rating", "setting": "[1]; Preemergence, scale 0 to 100", "value": 100}, {"measurement": "Cupgrass, Woolly plant response rating", "setting": "[2]; postemergence, 0-100 scale", "value": 75}, {"measurement": "Plant response rating, Cupgrass, Woolly", "setting": "[2]; [13]", "value": 90}, {"measurement": "Plant response rating, Cupgrass, Woolly", "setting": "[2]; [14]", "value": 100}, {"measurement": "Plant response rating, Cupgrass, Woolly", "setting": "[2]; [15]", "value": 100}, {"measurement": "Plant response rating, Cupgrass, Woolly", "setting": "[2]; [16]", "value": 90}, {"measurement": "Plant response rating, Cupgrass, Woolly", "setting": "[2]; [17]", "value": 95}, {"measurement": "Plant response rating, Cupgrass, Woolly", "setting": "[2]; [18]", "value": 95}, {"measurement": "Cupgrass, Woolly plant response rating", "setting": "[2]; Preemergence, scale 0 to 100", "value": 55}, {"measurement": "Plant response rating, Ryegrass, Italian", "setting": "[3]; [19]", "value": 30}, {"measurement": "Plant response rating, Ryegrass, Italian", "setting": "[3]; [20]", "value": 100}, {"measurement": "Plant response rating, Ryegrass, Italian", "setting": "[3]; [21]", "value": 100}, {"measurement": "Plant response rating, Ryegrass, Italian", "setting": "[3]; [22]", "value": 100}, {"measurement": "Plant response rating, Bluegrass", "setting": "[4]; [19]", "value": 0}, {"measurement": "Plant response rating, Bluegrass", "setting": "[4]; [20]", "value": 0}, {"measurement": "Plant response rating, Bluegrass", "setting": "[4]; [21]", "value": 0}, {"measurement": "Plant response rating, Bluegrass", "setting": "[4]; [22]", "value": 35}, {"measurement": "Plant response rating, Blackgrass", "setting": "[5]; [19]", "value": 0}, {"measurement": "Plant response rating, Blackgrass", "setting": "[5]; [20]", "value": 20}, {"measurement": "Plant response rating, Blackgrass", "setting": "[5]; [21]", "value": 75}, {"measurement": "Plant response rating, Blackgrass", "setting": "[5]; [22]", "value": 85}, {"measurement": "Plant response rating, Canarygrass", "setting": "[6]; [19]", "value": 0}, {"measurement": "Plant response rating, Canarygrass", "setting": "[6]; [20]", "value": 20}, {"measurement": "Plant response rating, Canarygrass", "setting": "[6]; [21]", "value": 65}, {"measurement": "Plant response rating, Canarygrass", "setting": "[6]; [22]", "value": 100}, {"measurement": "Plant response rating, Bromegrass, Downy", "setting": "[7]; [19]", "value": 0}, {"measurement": "Plant response rating, Bromegrass, Downy", "setting": "[7]; [20]", "value": 0}, {"measurement": "Plant response rating, Bromegrass, Downy", "setting": "[7]; [21]", "value": 10}, {"measurement": "Plant response rating, Bromegrass, Downy", "setting": "[7]; [22]", "value": 60}, {"measurement": "Plant response rating, Foxtail, Green", "setting": "[8]; [19]", "value": 30}, {"measurement": "Plant response rating, Foxtail, Green", "setting": "[8]; [20]", "value": 100}, {"measurement": "Plant response rating, Foxtail, Green", "setting": "[8]; [21]", "value": 100}, {"measurement": "Plant response rating, Foxtail, Green", "setting": "[8]; [22]", "value": 100}, {"measurement": "Plant response rating, Pigweed", "setting": "[9]; [19]", "value": 0}, {"measurement": "Plant response rating, Pigweed", "setting": "[9]; [20]", "value": 0}, {"measurement": "Plant response rating, Pigweed", "setting": "[9]; [21]", "value": 0}, {"measurement": "Plant response rating, Pigweed", "setting": "[9]; [22]", "value": 0}, {"measurement": "Plant response rating, Barley, Spring", "setting": "[10]; [19]", "value": 0}, {"measurement": "Plant response rating, Barley, Spring", "setting": "[10]; [20]", "value": 0}, {"measurement": "Plant response rating, Barley, Spring", "setting": "[10]; [21]", "value": 0}, {"measurement": "Plant response rating, Barley, Spring", "setting": "[10]; [22]", "value": 70}, {"measurement": "Plant response rating, Mustard, Wild", "setting": "[11]; [20]", "value": 0}, {"measurement": "Plant response rating, Mustard, Wild", "setting": "[11]; [21]", "value": 0}, {"measurement": "Plant response rating, Mustard, Wild", "setting": "[11]; [22]", "value": 0}, {"measurement": "Plant response rating, Oat, Wild", "setting": "wild oat (Avena fatua); [19]", "value": 0}, {"measurement": "Plant response rating, Oat, Wild", "setting": "wild oat (Avena fatua); [20]", "value": 0}, {"measurement": "Plant response rating, Oat, Wild", "setting": "wild oat (Avena fatua); [21]", "value": 70}, {"measurement": "Plant response rating, Oat, Wild", "setting": "wild oat (Avena fatua); [22]", "value": 75}, {"measurement": "Plant response rating, Wheat, Winter", "setting": "[12]; [19]", "value": 0}, {"measurement": "Plant response rating, Wheat, Winter", "setting": "[12]; [20]", "value": 10}, {"measurement": "Plant response rating, Wheat, Winter", "setting": "[12]; [21]", "value": 25}, {"measurement": "Plant response rating, Wheat, Winter", "setting": "[12]; [22]", "value": 60}]}
